According to the supplement of paper PMC4862054:

What was measured:
Conditions in all cases: incubation time: 72 h
CAL-85-1 [1] = experiment: drug sensitivity score (DSS), CellTox Green (DSS (AUC-based score)); higher = stronger drug effect (viability inhibition or cytotoxicity); extreme values may be limits of the assay
How it was run: (§1)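 Normalisation on every plate relied on 0.1 % DMSO and a positive kill control. The plates, 384-well format, held compound at 5 concentrations 10-fold apart across a compound-specific 10,000-fold range, and breast cancer cell lines in 20 µl suspension were incubated on them for 72 h before CellTox Green and then CellTiter-Glo readings. The drug sensitivity score derives from the area under the fitted dose-response curve.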

Hs578T = experiment: as above
How it was run: as §1

BT-549 = experiment: as above
How it was run: as §1

HCC1599 = experiment: as above
How it was run: as §1

BT-474 = experiment: as above
How it was run: as §1

HCC1143 [2] = experiment: as above
How it was run: as §1

MDA-MB-436 = experiment: as above
How it was run: as §1

MCF-10A = experiment: as above
How it was run: as §1

MFM-223 [3] = experiment: as above
How it was run: as §1

CAL-120 [4] = experiment: as above
How it was run: as §1

HDQ-P1 = experiment: as above
How it was run: as §1

MDA-MB-453 [5] = experiment: as above
How it was run: as §1

CAL-51 = experiment: as above
How it was run: as §1

DU-4475 [6] = experiment: as above
How it was run: as §1

MDA-MB-468 = experiment: as above
How it was run: as §1

MDA-MB-231 = experiment: as above
How it was run: as §1

HCC1937 = experiment: as above
How it was run: as §1

CAL-148 [7] = experiment: as above
How it was run: as §1

HCC1143 [8] = experiment: normalised viability (% of control), CellTiter-Blue; higher = more viable cells (about 100 = DMSO control)
How it was run: (§2)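 The reported figure is normalised viability at a single listed concentration of the series. Breast cancer cell lines (20 µl suspension) went onto 384-well plates holding compound in 5 µl medium for 72 h. CellTiter-Blue (2.5 µl, 2 h, 37 °C) was read by fluorescence at 560/590 nm, and each plate was scaled to vehicle at 100 and a positive kill control at 0.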

SK-BR-3 = experiment: as above
How it was run: as §2

MFM-223 [9] = experiment: as above
How it was run: as §2

CAL-120 [10] = experiment: as above
How it was run: as §2

MDA-MB-453 [11] = experiment: as above
How it was run: as §2

CAL-85-1 [12] = experiment: normalised viability (% of control), CellTiter-Blue; higher = more viable cells (about 100 = DMSO control)
Experimental: (§3)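 DSRT, CellTiter-Blue viability, 72 h incubation. Signal is normalised to DMSO and benzethonium chloride controls. Value is the normalised response at dose 8.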

MDA-MB-453 [13] = experiment: as above; remark: listed apart in the source
Experimental: as §3

DU-4475 [14] = experiment: as above
Experimental: as §3

CAL-148 [15] = experiment: as above
Experimental: as §3

| SMILES | drug sensitivity score (CAL-85-1 [1]) | drug sensitivity score (Hs578T) | drug sensitivity score (BT-549) | drug sensitivity score (HCC1599) | drug sensitivity score (BT-474) | drug sensitivity score (HCC1143 [2]) | drug sensitivity score (MDA-MB-436) | drug sensitivity score (MCF-10A) | drug sensitivity score (MFM-223 [3]) | drug sensitivity score (CAL-120 [4]) | drug sensitivity score (HDQ-P1) | drug sensitivity score (MDA-MB-453 [5]) | drug sensitivity score (CAL-51) | drug sensitivity score (DU-4475 [6]) | drug sensitivity score (MDA-MB-468) | drug sensitivity score (MDA-MB-231) | drug sensitivity score (HCC1937) | drug sensitivity score (CAL-148 [7]) | normalised viability (HCC1143 [8]; 10000 nM) [%] | normalised viability (SK-BR-3; 10000 nM) [%] | normalised viability (MFM-223 [9]; 10000 nM) [%] | normalised viability (CAL-120 [10]; 10000 nM) [%] | normalised viability (MDA-MB-453 [11]; 100 nM) [%] | normalised viability (CAL-85-1 [12]; 3000 nM) [%] | normalised viability (MDA-MB-453 [13]; 3000 nM) [%] | normalised viability (DU-4475 [14]; 3000 nM) [%] | normalised viability (CAL-148 [15]; 3000 nM) [%] | normalised viability (HCC1143 [8]; 5000 nM) [%] | normalised viability (SK-BR-3; 5000 nM) [%] | normalised viability (MFM-223 [9]; 5000 nM) [%] | normalised viability (CAL-120 [10]; 5000 nM) [%] | normalised viability (MDA-MB-453 [11]; 50 nM) [%] | normalised viability (CAL-85-1 [12]; 1500 nM) [%] | normalised viability (MDA-MB-453 [13]; 1500 nM) [%] | normalised viability (DU-4475 [14]; 1500 nM) [%] | normalised viability (CAL-148 [15]; 1500 nM) [%] |
| --- | --- | --- | --- | --- | --- | --- | --- | --- | --- | --- | --- | --- | --- | --- | --- | --- | --- | --- | --- | --- | --- | --- | --- | --- | --- | --- | --- | --- | --- | --- | --- | --- | --- | --- | --- | --- |
| Nc1ncnc2c1c(COc1cccc(Cl)c1)nn2C1CCOCC1 | 0 | 0.27 | 0 | 0 | 0 | 0 | 0 | 0 | 0 | 0 | 0 | 0 | 0 | 0 | 0 | 0 | 0 | 0 |  |  |  |  |  |  |  |  |  |  |  |  |  |  |  |  |  |  |
| COc1ccc(-c2ccc3c(N4CCOC[C@@H]4C)nc(N4CCOC[C@@H]4C)nc3n2)cc1CO [AZD8055] | 0.628 | 0 | 0 | 0 | 2.99 | 8.37 | 0 | 0 | 0 | 0 | 0 | 0 | 7.39 | 0 | 2.01 | 0 | 0 | 14.2 | 28.4 | 10.4 | 14.6 | 9.25 | 21.1 | 18.6 | 14.6 | 14.1 | 5.57 |  |  |  |  |  |  |  |  |  |
| C[C@]12CC[C@H](O)CC1=CC[C@@H]1[C@@H]2CC[C@]2(C)C(c3cccnc3)=CC[C@@H]12 [Abiraterone] | 0 | 0 | 0 | 0 | 0 | 0 | 0 | 0 | 0 | 0 | 0 | 0 | 0 | 0 | 0 | 0 | 0 | 0 |  |  |  |  |  |  |  |  |  | 83 | 93.5 | 87.8 | 92.1 | 102 | 97.5 | 96 | 88.1 | 98.1 |
| CN(C)CCN1C(=O)c2cccc3cc(N)cc(c23)C1=O [Amonafide] | 0 | 0 | 0 | 0 | 0 | 0 | 11.2 | 0 | 0 | 0 | 0 | 0 | 2.42 | 0 | 0 | 0 | 0 | 2.89 | 43.5 | 20.8 | 31.6 | 24.3 | 81 | 61.9 | 68.3 | 57.9 | 32 |  |  |  |  |  |  |  |  |  |
| CC(C)(C#N)c1cc(Cn2cncn2)cc(C(C)(C)C#N)c1 [Anastrozole] | 0 |  | 0 | 0 | 0 |  | 0 | 0 | 0 | 0 | 0 | 0.209 | 0 | 0 | 0 | 0 | 0 | 0 | 80.5 | 102 | 90.5 | 90.2 | 94.1 | 82.8 | 103 | 96.5 | 87.2 |  |  |  |  |  |  |  |  |  |
| CC(C)c1c(C(=O)Nc2ccccc2)c(-c2ccccc2)c(-c2ccc(F)cc2)n1CC[C@@H](O)C[C@@H](O)CC(=O)O [Atorvastatin] | 0 | 4.71 | 0 | 0 | 0 | 0 | 0 | 8.07 | 0 | 1.49 | 0 | 0.0639 | 13.9 | 0 | 0 | 13.1 | 0 | 0 |  |  |  |  |  |  |  |  |  |  |  |  |  |  |  |  |  |  |
| Cn1c(=O)n(-c2ccc(C(C)(C)C#N)cc2)c2c3cc(-c4cnc5ccccc5c4)ccc3ncc21 [Dactolisib] | 2.63 | 0 | 0 | 0 | 0 | 0 | 0 | 0 | 2.01 | 0 | 0 | 0 | 0 | 0 | 0 | 0 | 7.09 | 11.7 |  |  |  |  |  |  |  |  |  |  |  |  |  |  |  |  |  |  |
